Measured values taken from US6737383B1, “Herbicidal oxadiazolidines” (priority 1999, dated 2004).

Key:
rape = experiment: Test B pre/postemergence rape; assay type: in vivo, Brassica napus
How it was run: (§1)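 Response is a visual 0-to-10 score relative to untreated plants, where 0 means no effect and 10 means complete control, taken twelve to sixteen days after application. Treatments went onto soil at planting and onto foliage of 1- to 4-leaf plants, using a surfactant-containing non-phytotoxic solvent.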

surinam grass = experiment: Test B pre/postemergence surinam grass; assay type: in vivo, Brachiaria decumbens
How it was run: as §1

morningglory = experiment: Test B pre/postemergence morningglory; assay type: in vivo, Ipomoea hederacea
How it was run: as §1

soybean = experiment: Test B pre/postemergence soybean; assay type: in vivo, Glycine max
How it was run: as §1

cocklebur = experiment: Test B pre/postemergence cocklebur; assay type: in vivo, Xanthium strumarium
How it was run: as §1

giant foxtail = experiment: Test B pre/postemergence giant foxtail; assay type: in vivo, Setaria faberii
How it was run: as §1

velvetleaf = experiment: Test B pre/postemergence velvetleaf; assay type: in vivo, Abutilon theophrasti
How it was run: as §1

corn = experiment: Test B pre/postemergence corn; assay type: in vivo, Zea mays
How it was run: as §1

blackgrass = experiment: Test B pre/postemergence blackgrass; assay type: in vivo, Alopecurus myosuroides
How it was run: as §1

wild oat = experiment: Test B pre/postemergence wild oat; assay type: in vivo, Avena fatua
How it was run: as §1

bedstraw = experiment: Test B pre/postemergence bedstraw; assay type: in vivo, Galium aparine
How it was run: as §1

wheat = experiment: Test B pre/postemergence wheat; assay type: in vivo, Triticum aestivum
How it was run: as §1

pigweed = experiment: Test B pre/postemergence pigweed; assay type: in vivo, Amaranthus retroflexus
How it was run: as §1

crabgrass = experiment: Test B pre/postemergence crabgrass; assay type: in vivo, Digitaria sanguinalis
How it was run: as §1

sugar beet = experiment: Test B pre/postemergence sugar beet; assay type: in vivo, Beta vulgaris
How it was run: as §1

purple nutsedge = experiment: Test B pre/postemergence purple nutsedge; assay type: in vivo, Cyperus rotundus
How it was run: as §1

[1] = Postemergence, Rate 62 g/ha, scale of 0 to 10, 0 is no effect, 10 is complete control
[2] = Postemergence, Rate 125 g/ha, scale 0 to 10, 0 is no effect, 10 is complete control
[3] = Postemergence, Rate 500 g/ha, scale 0 to 10, 0 is no effect, 10 is complete control
[4] = Preemergence, Rate 62 g/ha, scale 0 to 10 (0 no effect, 10 complete control)
[5] = Preemergence, Rate 125 g/ha, scale 0 to 10, 0 is no effect, 10 is complete control
[6] = Preemergence, Rate 500 g/ha, scale of 0 to 10 where 0 is no effect and 10 is complete control
[7] = Rate 250 g/ha, Postemergence, scale of 0 to 10 where 0 is no effect and 10 is complete control

CC(Cl)=CCn1c(=O)on(C(=O)N(c2ccc(Cl)cc2)C(C)C)c1=O [Compound 544]
7: Bedstraw plant response rating (0 to 10 scale) (bedstraw; Preemergence, Rate 250 g/ha)
9: Giant foxtail plant response rating (giant foxtail; [4]) | Bedstraw plant response rating (bedstraw; [6]) | Plant response rating, Crabgrass (crabgrass; [3]) | Crabgrass plant response rating (crabgrass; [4]) | Crabgrass plant response rating (crabgrass; [5])
0: Rape plant response rating (rape; [1]) | Rape plant response rating (rape; [4]) | Rape plant response rating (rape; [5]) | B. signalgrass plant response rating (surinam grass; [1]) | B. signalgrass plant response rating (surinam grass; [2]) | Plant response rating, B. signalgrass (surinam grass; [7]) | Morningglory plant response rating (morningglory; [4]) | Morningglory plant response rating (morningglory; [5]) | Morningglory plant response rating (0 to 10 scale) (morningglory; Preemergence, Rate 250 g/ha) | Morningglory plant response rating (morningglory; [6]) | Soybean plant response rating (soybean; [1]) | Soybean plant response rating (soybean; [4]) | Soybean plant response rating (soybean; [5]) | Soybean plant response rating (0 to 10 scale) (soybean; Preemergence, Rate 250 g/ha) | Soybean plant response rating (soybean; [6]) | Plant response rating, Soybean (soybean; [7]) | Cocklebur plant response rating (cocklebur; [4]) | Cocklebur plant response rating (0 to 10 scale) (cocklebur; Preemergence, Rate 250 g/ha) | Cocklebur plant response rating (cocklebur; [6]) | Giant foxtail plant response rating (giant foxtail; [1]) | Giant foxtail plant response rating (giant foxtail; [2]) | Velvetleaf plant response rating (velvetleaf; [1]) | Velvetleaf plant response rating (velvetleaf; [2]) | Plant response rating, Velvetleaf (velvetleaf; [3]) | Velvetleaf plant response rating (velvetleaf; [4]) | Velvetleaf plant response rating (velvetleaf; [5]) | Velvetleaf plant response rating (0 to 10 scale) (velvetleaf; Preemergence, Rate 250 g/ha) | Velvetleaf plant response rating (velvetleaf; [6]) | Plant response rating, Velvetleaf (velvetleaf; [7]) | Corn plant response rating (corn; [1]) | Corn plant response rating (corn; [2]) | Plant response rating, Corn (corn; [3]) | Corn plant response rating (corn; [4]) | Corn plant response rating (corn; [5]) | Corn plant response rating (0 to 10 scale) (corn; Preemergence, Rate 250 g/ha) | Corn plant response rating (corn; [6]) | Plant response rating, Corn (corn; [7]) | Blackgrass plant response rating (blackgrass; [1]) | Blackgrass plant response rating (blackgrass; [2]) | Blackgrass plant response rating (blackgrass; [4]) | Blackgrass plant response rating (blackgrass; [5]) | Plant response rating, Blackgrass (blackgrass; [7]) | Wild oats plant response rating (wild oat; [1]) | Wild oats plant response rating (wild oat; [2]) | Wild oats plant response rating (wild oat; [4]) | Wild oats plant response rating (wild oat; [5]) | Plant response rating, Wild oats (wild oat; [7]) | Bedstraw plant response rating (bedstraw; [1]) | Bedstraw plant response rating (bedstraw; [4]) | Wheat plant response rating (wheat; [1]) | Wheat plant response rating (wheat; [2]) | Plant response rating, Wheat (wheat; [3]) | Wheat plant response rating (wheat; [4]) | Wheat plant response rating (wheat; [5]) | Wheat plant response rating (0 to 10 scale) (wheat; Preemergence, Rate 250 g/ha) | Wheat plant response rating (wheat; [6]) | Plant response rating, Wheat (wheat; [7]) | Redroot pigweed plant response rating (pigweed; [1]) | Redroot pigweed plant response rating (pigweed; [2]) | Plant response rating, Redroot pigweed (pigweed; [7]) | Crabgrass plant response rating (crabgrass; [1]) | Sugarbeets plant response rating (sugar beet; [1]) | Sugarbeets plant response rating (sugar beet; [2]) | Sugarbeets plant response rating (sugar beet; [4]) | Sugarbeets plant response rating (sugar beet; [5]) | Sugarbeets plant response rating (0 to 10 scale) (sugar beet; Preemergence, Rate 250 g/ha) | Nutsedge plant response rating (purple nutsedge; [1]) | Nutsedge plant response rating (purple nutsedge; [2]) | Plant response rating, Nutsedge (purple nutsedge; [3]) | Nutsedge plant response rating (purple nutsedge; [4]) | Nutsedge plant response rating (purple nutsedge; [5]) | Nutsedge plant response rating (0 to 10 scale) (purple nutsedge; Preemergence, Rate 250 g/ha) | Nutsedge plant response rating (purple nutsedge; [6]) | Plant response rating, Nutsedge (purple nutsedge; [7])
8: B. signalgrass plant response rating (surinam grass; [6]) | Crabgrass plant response rating (crabgrass; [2]) | Plant response rating, Crabgrass (crabgrass; [7])
6: Rape plant response rating (rape; [6]) | B. signalgrass plant response rating (0 to 10 scale, 0 is no effect, 10 is complete control) (surinam grass; Preemergence, Rate 250 g/ha) | Plant response rating, Giant foxtail (giant foxtail; [7]) | Blackgrass plant response rating (blackgrass; [6])
4: Morningglory plant response rating (morningglory; [2]) | Wild oats plant response rating (wild oat; [6]) | Sugarbeets plant response rating (sugar beet; [6])
3: Plant response rating, Rape (rape; [3]) | Rape plant response rating (0 to 10 scale) (rape; Preemergence, Rate 250 g/ha) | Plant response rating, B. signalgrass (surinam grass; [3]) | B. signalgrass plant response rating (surinam grass; [4]) | B. signalgrass plant response rating (surinam grass; [5]) | Morningglory plant response rating (morningglory; [1]) | Cocklebur plant response rating (cocklebur; [1]) | Cocklebur plant response rating (cocklebur; [2]) | Plant response rating, Cocklebur (cocklebur; [3]) | Plant response rating, Cocklebur (cocklebur; [7]) | Plant response rating, Blackgrass (blackgrass; [3]) | Plant response rating, Bedstraw (bedstraw; [3]) | Redroot pigweed plant response rating (pigweed; [4]) | Redroot pigweed plant response rating (pigweed; [5]) | Redroot pigweed plant response rating (0 to 10 scale) (pigweed; Preemergence, Rate 250 g/ha) | Plant response rating, Sugarbeets (sugar beet; [3])
1: Plant response rating, Sugarbeets (sugar beet; [7])
10: Plant response rating, Morningglory (morningglory; [3]) | Plant response rating, Morningglory (morningglory; [7]) | Giant foxtail plant response rating (giant foxtail; [5]) | Giant foxtail plant response rating (0 to 10 scale) (giant foxtail; Preemergence, Rate 250 g/ha) | Giant foxtail plant response rating (giant foxtail; [6]) | Redroot pigweed plant response rating (pigweed; [6]) | Crabgrass plant response rating (0 to 10 scale) (crabgrass; Preemergence, Rate 250 g/ha) | Crabgrass plant response rating (crabgrass; [6])
2: Rape plant response rating (rape; [2]) | Plant response rating, Rape (rape; [7]) | Soybean plant response rating (soybean; [2]) | Plant response rating, Soybean (soybean; [3]) | Blackgrass plant response rating (0 to 10 scale) (blackgrass; Preemergence, Rate 250 g/ha) | Plant response rating, Wild oats (wild oat; [3]) | Wild oats plant response rating (0 to 10 scale) (wild oat; Preemergence, Rate 250 g/ha) | Bedstraw plant response rating (bedstraw; [2]) | Bedstraw plant response rating (bedstraw; [5]) | Plant response rating, Bedstraw (bedstraw; [7]) | Plant response rating, Redroot pigweed (pigweed; [3])
